Laboratory results published in patent US10752624B2, “Kinase inhibitors” (Origenis GmbH, priority 2012, dated 2020).

Key:
[1] = target: LRRK2 (Homo sapiens, UniProt Q5S007); test: LRRK2-LRRK2 G2019S-Assay (LanthaScreen Eu Kinase Binding Assay); conditions: 5 nM LRRK2, 10 nM tracer 236, 2 nM EU-Anti-GST antibody, 1 h at RT; read-out: LRRK2 Activities: IC50
In short: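 Compound competition with Alexa Fluor 647 tracer 236 (10 nM) was measured after 1 h at room temperature, using 5 nM LRRK2 (wild type or mutant) bound to 2 nM Eu-anti-GST antibody. IC50 was derived from the acceptor/donor (665/615 nm) ratio using a variable-slope dose-response fit.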

[2] = target: T1, SYK kinase (Homo sapiens, UniProt P43405); test: SYK Assay (OMNIA Kinase Assay, SOX peptide fluorescence); assay type: biochemical; conditions: 1 mM ATP, 10 μM Omnia Peptide Substrate Tyr 7, 30° C., readings for 30 minutes; read-out: SYK Activities: IC50
T1 construct: purchased Invitrogen, Carlsbad
In short: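 The reaction was run at 30 °C with 1 mM ATP, 0.2 mM DTT and 10 μM Omnia Tyr 7 peptide (final) and started by adding SYK. Chelation-enhanced SOX fluorescence (ex 360/em 485 nm) was read every 30 s for 30 min. Reaction velocity versus inhibitor concentration was fitted sigmoidally for IC50.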

Sequence of LRRK2 (Q5S007 970-2527 limits assumed): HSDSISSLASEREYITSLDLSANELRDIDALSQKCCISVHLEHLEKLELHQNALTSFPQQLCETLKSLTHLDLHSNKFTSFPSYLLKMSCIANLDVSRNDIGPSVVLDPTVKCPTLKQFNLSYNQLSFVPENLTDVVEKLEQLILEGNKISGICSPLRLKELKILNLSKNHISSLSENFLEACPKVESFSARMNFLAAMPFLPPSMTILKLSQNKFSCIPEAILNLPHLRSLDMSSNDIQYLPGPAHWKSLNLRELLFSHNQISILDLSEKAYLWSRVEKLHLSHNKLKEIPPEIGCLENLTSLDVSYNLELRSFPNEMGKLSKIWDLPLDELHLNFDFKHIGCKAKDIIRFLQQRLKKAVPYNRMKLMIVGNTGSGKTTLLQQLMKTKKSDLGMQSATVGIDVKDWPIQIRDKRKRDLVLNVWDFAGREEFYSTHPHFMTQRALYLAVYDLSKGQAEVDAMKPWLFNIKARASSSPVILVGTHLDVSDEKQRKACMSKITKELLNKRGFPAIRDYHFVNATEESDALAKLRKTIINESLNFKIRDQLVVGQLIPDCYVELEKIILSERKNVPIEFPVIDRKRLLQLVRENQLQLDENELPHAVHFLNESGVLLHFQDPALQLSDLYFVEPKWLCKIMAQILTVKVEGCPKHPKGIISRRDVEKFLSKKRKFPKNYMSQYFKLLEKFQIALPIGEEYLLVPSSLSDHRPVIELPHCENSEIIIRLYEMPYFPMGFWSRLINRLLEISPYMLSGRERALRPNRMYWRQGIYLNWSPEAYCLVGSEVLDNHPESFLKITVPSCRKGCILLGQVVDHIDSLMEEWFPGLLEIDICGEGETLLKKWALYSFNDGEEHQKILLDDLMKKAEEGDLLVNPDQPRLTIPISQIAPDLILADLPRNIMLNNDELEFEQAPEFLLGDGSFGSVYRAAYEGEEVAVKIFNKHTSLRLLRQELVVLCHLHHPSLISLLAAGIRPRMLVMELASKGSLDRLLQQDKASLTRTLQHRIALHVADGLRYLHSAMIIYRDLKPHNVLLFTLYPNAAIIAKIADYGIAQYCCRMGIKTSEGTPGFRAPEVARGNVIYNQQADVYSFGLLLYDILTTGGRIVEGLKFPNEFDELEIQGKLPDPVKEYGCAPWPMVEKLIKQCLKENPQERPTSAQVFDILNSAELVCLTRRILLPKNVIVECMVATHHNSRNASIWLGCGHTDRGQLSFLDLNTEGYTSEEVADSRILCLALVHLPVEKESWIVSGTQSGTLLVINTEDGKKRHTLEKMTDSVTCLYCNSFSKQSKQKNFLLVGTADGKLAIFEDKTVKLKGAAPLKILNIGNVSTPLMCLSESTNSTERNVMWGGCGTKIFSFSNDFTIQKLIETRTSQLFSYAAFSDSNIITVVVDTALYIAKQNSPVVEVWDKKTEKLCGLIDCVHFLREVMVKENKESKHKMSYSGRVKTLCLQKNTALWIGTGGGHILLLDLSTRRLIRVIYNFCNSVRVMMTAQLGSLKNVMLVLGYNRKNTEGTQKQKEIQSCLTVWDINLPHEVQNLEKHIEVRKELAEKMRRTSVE

Row | SMILES | IC50 [1] | IC50 [2]
1 | CS(=O)(=O)c1ccc2c(c1)nc(Nc1cnn(CCO)c1)c1[nH]ncc12 [Example 193, 2-(4-((7-(methylsulfonyl)-3H-pyrazolo[3,4-c]quinolin-4-yl)amino)-1H-pyrazol-1-yl)ethan-1-ol] | < 10 nM | 10 to 100 nM
2 | COc1cc(C(=O)N2CCOCC2)ccc1Nc1nc2ccc(S(C)(=O)=O)cc2c2cn[nH]c12 [Example 196, (3-methoxy-4-((8-(methylsulfonyl)-3H-pyrazolo[3,4-c]quinolin-4-yl)amino)phenyl)(morpholino)methanone] | 10 to 100 nM | 100 to 1000 nM
3 | CS(=O)(=O)c1ccc2c(c1)nc(Nc1cnn(C3CC3)c1)c1[nH]ncc12 [Example 197, N-(1-cyclopropyl-1H-pyrazol-4-yl)-7-(methylsulfonyl)-3H-pyrazolo[3,4-c]quinolin-4-amine] | 10 to 100 nM | 10 to 100 nM
4 | COc1cccc2nc(Nc3cnn(CCO)c3)c3[nH]ncc3c12 [Example 199, 2-(4-((9-methoxy-3H-pyrazolo[3,4-c]quinolin-4-yl)amino)-1H-pyrazol-1-yl)ethan-1-ol] | < 10 nM | 100 to 1000 nM
5 | COc1cccc2nc(Nc3cnn(C4CC4)c3)c3[nH]ncc3c12 [Example 201, N-(1-cyclopropyl-1H-pyrazol-4-yl)-9-methoxy-3H-pyrazolo[3,4-c]quinolin-4-amine] | < 10 nM | 100 to 1000 nM
6 | COCC(C)(C)n1cc(Nc2nc3cccc(OC)c3c3cn[nH]c23)cn1 [Example 204, 9-methoxy-N-(1-(1-methoxy-2-methylpropan-2-yl)-1H-pyrazol-4-yl)-3H-pyrazolo[3,4-c]quinolin-4-amine] | < 10 nM | 100 to 1000 nM
7 | COCC(C)(C)n1cc(Nc2nc3ccc(S(C)(=O)=O)cc3c3cn[nH]c23)cn1 [Example 208, N-(1-(1-methoxy-2-methylpropan-2-yl)-1H-pyrazol-4-yl)-8-(methylsulfonyl)-3H-pyrazolo[3,4-c]quinolin-4-amine] | < 10 nM | 10 to 100 nM
8 | CC(C)(C)N1CCC(n2cc(Nc3nc4ccc(S(C)(=O)=O)cc4c4cn[nH]c34)cn2)CC1 [Example 211, N-(1-(1-(tert-butyl)piperidin-4-yl)-1H-pyrazol-4-yl)-8-(methylsulfonyl)-3H-pyrazolo[3,4-c]quinolin-4-amine] | < 10 nM | < 10 nM
9 | CS(=O)(=O)c1ccc2nc(Nc3cnn(CCF)c3)c3[nH]ncc3c2c1 [Example 221, N-(1-(2-fluoroethyl)-1H-pyrazol-4-yl)-8-(methylsulfonyl)-3H-pyrazolo[3,4-c]quinolin-4-amine] | < 10 nM | < 10 nM
10 | COc1nn(C(C)C)cc1Nc1nc2cccc(OC)c2c2cn[nH]c12 [Example 224, N-(1-isopropyl-3-methoxy-1H-pyrazol-4-yl)-9-methoxy-3H-pyrazolo[3,4-c]quinolin-4-amine] | < 10 nM | 100 to 1000 nM
11 | COc1nn(C2CCN(C(C)(C)C)CC2)cc1Nc1nc2ccc(S(C)(=O)=O)cc2c2cn[nH]c12 [Example 228, N-(1-(1-(tert-butyl)piperidin-4-yl)-3-methoxy-1H-pyrazol-4-yl)-8-(methylsulfonyl)-3H-pyrazolo[3,4-c]quinolin-4-amine] | 10 to 100 nM | 100 to 1000 nM
12 | COCCCn1cc(Nc2nc3ccc(S(C)(=O)=O)cc3c3cn[nH]c23)c(OC)n1 [Example 231, N-(3-methoxy-1-(3-methoxypropyl)-1H-pyrazol-4-yl)-8-(methylsulfonyl)-3H-pyrazolo[3,4-c]quinolin-4-amine] | 10 to 100 nM | 100 to 1000 nM
13 | CC(C)n1ncc(Nc2nc3ccc(S(C)(=O)=O)cc3c3cn[nH]c23)c1Cl [Example 233, N-(5-chloro-1-isopropyl-1H-pyrazol-4-yl)-8-(methylsulfonyl)-3H-pyrazolo[3,4-c]quinolin-4-amine] | < 10 nM | 100 to 1000 nM
14 | COc1cccc2nc(Nc3cnn(C4CCNCC4)c3)c3[nH]ncc3c12 [Example 236, 9-methoxy-N-(1-(piperidin-4-yl)-1H-pyrazol-4-yl)-3H-pyrazolo[3,4-c]quinolin-4-amine] | < 10 nM | 10 to 100 nM
15 | CC(C)n1cc(Nc2nc3ccc(S(C)(=O)=O)cc3c3cn[nH]c23)c(C#N)n1 [Example 246, 1-isopropyl-4-((8-(methylsulfonyl)-3H-pyrazolo[3,4-c]quinolin-4-yl)amino)-1H-pyrazole-3-carbonitrile] | 10 to 100 nM | 100 to 1000 nM
16 | CC(C)n1ncc(Nc2nc3ccc(S(C)(=O)=O)cc3c3cn[nH]c23)c1C#N [Example 247, 1-isopropyl-4-((8-(methylsulfonyl)-3H-pyrazolo[3,4-c]quinolin-4-yl)amino)-1H-pyrazole-5-carbonitrile] | < 10 nM | 100 to 1000 nM
17 | COCCn1ncc(Nc2nc3ccc(S(C)(=O)=O)cc3c3cn[nH]c23)c1C#N [Example 249, 1-(2-methoxyethyl)-4-((8-(methylsulfonyl)-3H-pyrazolo[3,4-c]quinolin-4-yl)amino)-1H-pyrazole-5-carbonitrile] | 10 to 100 nM | 100 to 1000 nM
18 | C=C(C)Cn1cc(Nc2nc3cccc(OC)c3c3cn[nH]c23)cn1 [Example 258, 9-methoxy-N-(1-(2-methylallyl)-1H-pyrazol-4-yl)-3H-pyrazolo[3,4-c]quinolin-4-amine] | < 10 nM | 100 to 1000 nM
19 | CS(=O)(=O)c1ccc2nc(Nc3cnn(CC(F)(F)F)c3)c3[nH]ncc3c2c1 [Example 261, 8-(methylsulfonyl)-N-(1-(2,2,2-trifluoroethyl)-1H-pyrazol-4-yl)-3H-pyrazolo[3,4-c]quinolin-4-amine] | < 10 nM | 10 to 100 nM
20 | CC(C)(O)Cn1cc(Nc2nc3ccc(S(C)(=O)=O)cc3c3cn[nH]c23)cn1 [Example 262, 2-methyl-1-(4-((8-(methylsulfonyl)-3H-pyrazolo[3,4-c]quinolin-4-yl)amino)-1H-pyrazol-1-yl)propan-2-ol] | < 10 nM | 10 to 100 nM

The remaining lines, values ahead:

Row | IC50 [1] | IC50 [2] | SMILES
21 | 10 to 100 nM | 10 to 100 nM | CC(C)Cn1cc(Nc2nc3cc(S(C)(=O)=O)ccc3c3cn[nH]c23)cn1 [Example 192, N-(1-isobutyl-1H-pyrazol-4-yl)-7-(methylsulfonyl)-3H-pyrazolo[3,4-c]quinolin-4-amine]
22 | < 10 nM | 10 to 100 nM | CC(C)(C)n1cc(Nc2nc3ccc(S(C)(=O)=O)cc3c3cn[nH]c23)cn1 [Example 195, N-(1-(tert-butyl)-1H-pyrazol-4-yl)-8-(methylsulfonyl)-3H-pyrazolo[3,4-c]quinolin-4-amine]
23 | < 10 nM | 100 to 1000 nM | COc1cccc2nc(Nc3cnn(CC(C)C)c3)c3[nH]ncc3c12 [Example 198, N-(1-isobutyl-1H-pyrazol-4-yl)-9-methoxy-3H-pyrazolo[3,4-c]quinolin-4-amine]
24 | < 10 nM | < 10 nM | CS(=O)(=O)c1ccc2nc(Nc3cnn(C4CC4)c3)c3[nH]ncc3c2c1 [Example 203, N-(1-cyclopropyl-1H-pyrazol-4-yl)-8-(methylsulfonyl)-3H-pyrazolo[3,4-c]quinolin-4-amine]
25 | < 10 nM | 10 to 100 nM | COc1cccc2nc(Nc3cnn(C4CCN(C(C)(C)C)CC4)c3)c3[nH]ncc3c12 [Example 206, N-(1-(1-(tert-butyl)piperidin-4-yl)-1H-pyrazol-4-yl)-9-methoxy-3H-pyrazolo[3,4-c]quinolin-4-amine]
26 | < 10 nM | 100 to 1000 nM | COc1nn(C(C)C)cc1Nc1nc2ccc(S(C)(=O)=O)cc2c2cn[nH]c12 [Example 226, N-(1-isopropyl-3-methoxy-1H-pyrazol-4-yl)-8-(methylsulfonyl)-3H-pyrazolo[3,4-c]quinolin-4-amine]
27 | < 10 nM | 100 to 1000 nM | COc1c(Nc2nc3ccc(S(C)(=O)=O)cc3c3cn[nH]c23)cnn1C(C)C [Example 227, N-(1-isopropyl-5-methoxy-1H-pyrazol-4-yl)-8-(methylsulfonyl)-3H-pyrazolo[3,4-c]quinolin-4-amine]
28 | 10 to 100 nM | 100 to 1000 nM | COc1c(Nc2nc3ccc(S(C)(=O)=O)cc3c3cn[nH]c23)cnn1C1CCN(C(C)(C)C)CC1 [Example 229, N-(1-(1-(tert-butyl)piperidin-4-yl)-5-methoxy-1H-pyrazol-4-yl)-8-(methylsulfonyl)-3H-pyrazolo[3,4-c]quinolin-4-amine]
29 | 10 to 100 nM | 100 to 1000 nM | COCCCn1ncc(Nc2nc3ccc(S(C)(=O)=O)cc3c3cn[nH]c23)c1OC [Example 232, N-(5-methoxy-1-(3-methoxypropyl)-1H-pyrazol-4-yl)-8-(methylsulfonyl)-3H-pyrazolo[3,4-c]quinolin-4-amine]
30 | < 10 nM | 100 to 1000 nM | COc1cccc2nc(Nc3cnn(CCF)c3)c3[nH]ncc3c12 [Example 253, N-(1-(2-fluoroethyl)-1H-pyrazol-4-yl)-9-methoxy-3H-pyrazolo[3,4-c]quinolin-4-amine]
31 | < 10 nM | 100 to 1000 nM | COc1cccc2nc(Nc3cnn(CC(C)(C)O)c3)c3[nH]ncc3c12 [Example 256, 1-(4-((9-methoxy-3H-pyrazolo[3,4-c]quinolin-4-yl)amino)-1H-pyrazol-1-yl)-2-methylpropan-2-ol]
32 | < 10 nM | 100 to 1000 nM | COc1cccc2nc(Nc3cnn(CC(F)(F)F)c3)c3[nH]ncc3c12 [Example 257, 9-methoxy-N-(1-(2,2,2-trifluoroethyl)-1H-pyrazol-4-yl)-3H-pyrazolo[3,4-c]quinolin-4-amine]
33 | < 10 nM | 100 to 1000 nM | COc1cccc2nc(Nc3cnn(C=C(C)C)c3)c3[nH]ncc3c12 [Example 259, 9-methoxy-N-(1-(2-methylprop-1-en-1-yl)-1H-pyrazol-4-yl)-3H-pyrazolo[3,4-c]quinolin-4-amine]
